According to publication PMC6213796, “Purification and Identification of Angiotensin I-Converting Enzyme Inhibitory Peptides and the Antihypertensive Effect of Chlorella sorokiniana Protein Hydrolysates” (Nutrients, 2018):
Read-outs that look alike come from different tables or passages of the source. Each block holds one molecule with its values, some of them ahead of it. Residues, ends and D or L forms follow the SMILES beside them.

Assays:
Rabbit lung ACE = molecular target: T1, Rabbit lung ACE (Oryctolagus cuniculus, UniProt P12822); assay: In vitro assay for ACE-inhibitory activity (HHL substrate, RP-HPLC of hippuric acid); assay type: biochemical; settings: for ACE Inhibitory (%): RP-HPLC peaks of fraction F of PN-1G, at peptide content 0.01-0.03 mg/mL
T1 construct: ACE of rabbit lung, and other chemicals of analytical grade were obtained from Sigma Chemical Co; purchased Sigma Chemical Co. (St. Louis, MO, USA); host or cells: rabbit lung tissue
T1 sequence (P12822 34-1310): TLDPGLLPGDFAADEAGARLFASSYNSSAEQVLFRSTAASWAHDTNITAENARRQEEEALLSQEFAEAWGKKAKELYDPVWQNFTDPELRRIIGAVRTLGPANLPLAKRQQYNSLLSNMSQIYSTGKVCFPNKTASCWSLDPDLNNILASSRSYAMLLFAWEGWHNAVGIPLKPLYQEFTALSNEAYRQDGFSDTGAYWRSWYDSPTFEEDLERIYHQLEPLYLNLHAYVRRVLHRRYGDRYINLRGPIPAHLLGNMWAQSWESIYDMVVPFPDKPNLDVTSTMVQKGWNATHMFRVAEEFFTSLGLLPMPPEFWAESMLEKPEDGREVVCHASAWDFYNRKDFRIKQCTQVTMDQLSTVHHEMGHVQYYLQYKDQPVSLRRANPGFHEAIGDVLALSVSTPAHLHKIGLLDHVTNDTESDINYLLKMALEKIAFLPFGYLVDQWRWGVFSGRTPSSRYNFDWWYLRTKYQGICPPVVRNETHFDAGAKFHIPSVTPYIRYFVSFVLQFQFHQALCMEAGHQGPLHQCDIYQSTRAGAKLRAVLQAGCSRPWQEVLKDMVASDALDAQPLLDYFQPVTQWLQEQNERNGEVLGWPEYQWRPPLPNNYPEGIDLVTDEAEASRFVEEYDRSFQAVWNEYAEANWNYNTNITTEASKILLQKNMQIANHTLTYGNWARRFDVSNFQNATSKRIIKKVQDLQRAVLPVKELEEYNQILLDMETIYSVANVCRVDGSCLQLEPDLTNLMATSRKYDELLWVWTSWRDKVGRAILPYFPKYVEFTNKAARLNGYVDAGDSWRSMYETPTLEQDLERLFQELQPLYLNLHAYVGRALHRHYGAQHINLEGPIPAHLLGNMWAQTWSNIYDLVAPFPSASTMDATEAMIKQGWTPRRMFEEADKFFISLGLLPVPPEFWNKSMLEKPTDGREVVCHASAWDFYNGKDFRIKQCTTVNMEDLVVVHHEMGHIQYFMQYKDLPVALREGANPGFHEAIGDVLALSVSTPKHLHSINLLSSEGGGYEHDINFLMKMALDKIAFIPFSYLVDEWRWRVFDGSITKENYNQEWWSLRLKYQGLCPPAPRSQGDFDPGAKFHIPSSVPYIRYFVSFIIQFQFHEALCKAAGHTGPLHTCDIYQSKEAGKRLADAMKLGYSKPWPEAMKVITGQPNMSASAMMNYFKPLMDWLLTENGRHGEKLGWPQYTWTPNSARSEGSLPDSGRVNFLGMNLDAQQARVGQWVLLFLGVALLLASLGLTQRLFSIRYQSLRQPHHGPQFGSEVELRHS
Experimental: In brief, 15 mM HHL was dissolved in 100 mM Na-borate buffer (pH 8.3) supplemented with 300 mM NaCl. […] A mixture containing 75 μL of ACE solution and 75 μL of the sample with a 5000-Da MWCO membrane (Millipore, Burlington, MA, USA) was incubated at 37 °C for 10 min, to which was added 75 μL of HHL solution, and the mixture was incubated for a further 30 min. […] Finally, inhibition activity was calculated using the following formula.Inhibition activity (%) = [(Ec - Es)/(Ec - Eb)] × 100 where Ec is the absorbance with addition of the buffer instead of the test sample (control), Es is the absorbance when the sample was added to the reaction mixture (sample), and Eb is the absorbance when the stop solution was added before the reaction occurred (blank). […] All data presented in this paper are the average of three repeats or mean ± standard deviation (SD).

ACE = settings: cited from earlier work
SHRs = settings: tube feeding, after 2 to 4 h, compared with captopril at the same dose; cited from earlier work
[1] = molecular target: angiotensin I-converting enzyme (ACE) of rabbit lung (rabbit) (UniProt P12822)
[2] = molecular target: angiotensin I-converting enzyme (ACE) of rabbit lung (rabbit) (UniProt P12822); remark: listed apart in the source
[3] = peaks F7 to F10, converted from μM, read-out: IC50 (equivalent in mg/mL) (converted)
[4] = peptides of peaks F7 to F10 from PN-1G, read-out: IC50
[5] = ACE-inhibitory peptides from pepsin hydrolysate of Porphyra yezoensis, read-out: IC50

ACE Inhibitory (%) (Rabbit lung ACE): 54.3%
IC50 (Rabbit lung ACE; [3]): 308 µM
IC50 (Rabbit lung ACE; [4]): 307.61 ± 0.01 µM
Molecule: CC(C)[C@H](NC(=O)[C@@H](N)Cc1c[nH]c2ccccc12)C(=O)O [Peak F7, Trp–Val] (H-Trp-Val-OH)

Molecule: CC(C)[C@H](N)C(=O)N[C@@H](Cc1c[nH]c2ccccc12)C(=O)O [Peak F8, Val–Trp] (H-Val-Trp-OH)
IC50 (Rabbit lung ACE; IC50 (equivalent in mg/mL), peaks F7 to F10, converted from μM): 0.593 µM
IC50 (Rabbit lung ACE; IC50, peptides of peaks F7 to F10 from PN-1G): 0.58 ± 0.02 µM
ACE Inhibitory (%) (Rabbit lung ACE): 86.1%

ACE Inhibitory (%) (Rabbit lung ACE): 95.1%
IC50 (Rabbit lung ACE; [3]): 0.504 µM
IC50 (Rabbit lung ACE; [4]): 0.5 ± 0.01 µM
Molecule: CC[C@H](C)[C@H](N)C(=O)N[C@@H](Cc1c[nH]c2ccccc12)C(=O)O [Peak F9, Ile–Trp]

Molecule: Ala-Lys-Tyr-Ser-Tyr (AKYSY; printed: Ala-Lys-Tyr-Ser-Tyr)
IC50 (ACE; [5]): 1.52 µM

Molecule: Ile-Gln-Pro
IC50 (ACE; peptide from Alcalase hydrolysate, read-out: IC50): 5.77 µM
blood pressure-lowering effect (SHRs): same blood pressure-lowering effect as captopril

IC50 of inhibition of ACE activity (hydrolysis of HHL to hippuric acid, RP-HPLC, 37 °C, pH 8.3) [1]: 0.5 μM
ACE Inhibitory (%) of peak F9 at peptide content 0.01 mg/mL [2]: 95.1%
Molecule: Ile-Trp (peptide)

Molecule: Ile-Tyr
IC50 (ACE; [5]): 2.69 µM

Molecule: Leu-Arg-Tyr
IC50 (ACE; [5]): 5.06 µM

IC50 of inhibition of ACE activity (hydrolysis of HHL to hippuric acid, RP-HPLC, 37 °C, pH 8.3) [1]: 1.11 μM
ACE Inhibitory (%) of peak F10 at peptide content 0.01 mg/mL [2]: 87.7%
Molecule: Leu-Trp (peptide)

Molecule: Met-Lys-Tyr
IC50 (ACE; [5]): 7.26 µM

Molecule: Phe–Ala–Leu
IC50 (ACE; peptide from pepsin hydrolysate of C. vulgaris, read-out: IC50): 26.3 µM

IC50 of inhibition of ACE activity (hydrolysis of HHL to hippuric acid, RP-HPLC, 37 °C, pH 8.3) [1]: 308 μM
ACE Inhibitory (%) of peak F7 at peptide content 0.01 mg/mL [2]: 54.3%
Molecule: Trp-Val (peptide)

Molecule: VRYL (UniProt P04654 220-223, looked up, fragment)
IC50 (ACE; before hydrolysis with digestive enzymes): 9 µg/mL

IC50 of inhibition of ACE activity (hydrolysis of HHL to hippuric acid, RP-HPLC, 37 °C, pH 8.3) [1]: 0.58 μM
ACE Inhibitory (%) of peak F8 at peptide content 0.01 mg/mL [2]: 86.1%
Molecule: Val-Trp (peptide)
